Measurements: paper PMC7822874, “Chemoprotective antimalarials identified through quantitative high-throughput screening of Plasmodium blood and liver stage parasites” (Scientific Reports, 2021)
Several values for one entry are separate records, joined by “and”; a condition that tells them apart may be missing. Identical values can stand only once. Like-named read-outs stand apart in the source and are kept apart here.

What was measured:
[1] = test system: P. berghei-ANKA-GFP-LucCON liver stage parasites in HepG2-A16-CD81EGFP cells; test: P. berghei liver stage Pb-Luc assay, Method 1 (UCSD, 1536-well); format: cell-based, Plasmodium berghei; conditions: for Average P. berghei 3 µM response( %) / Average P. berghei 1 µM response (%): P. berghei liver stage, averaged response (percent); for Average P. berghei 1 µM response (%): the header list (r8) defines it as the 1 µM dose; for Max Resp (signal direction of the dose response) / AC50 / Log AC50 (M): Method 1; for Max Resp (signal direction of the dose response): Decrease = decreasing P. berghei viability with dose, Increase = increasing signal, Inactive = no dose response; for activity at 1 µM / activity at 3 µM: 48 h, average of 2 wells, 1536-well plate; for activity at 1 µM: nominal 1 uM (10 mM stock), […] for 15 mM, 1.2 uM for 12 mM, 2 uM for 20 mM stock; for activity at 3 µM: nominal 3 uM (10 mM stock), 4.5 uM for 15 mM, 3.6 uM for 12 mM, 6 uM for 20 mM stock
[2] = test system: P. falciparum Dd2 (clone B2) asexual blood stage parasites; test: P. falciparum Dd2 asexual blood stage SYBR Green-I 72 h proliferation assay (qHTS); format: cell-based, Plasmodium falciparum; conditions: for Pf ABS Log AC50 (M): averaged P. falciparum asexual blood stage potency, log10 of AC50 in M
HepG2-A16-CD81EGFP cells = conditions: for Average HepG2 3 µM response( %): averaged response (percent)
[3] = test system: T1, Plasmodium falciparum Dd2-attB (parental line), asexual blood stages; test: microbe, parasite or virus in culture; design: replicate k of 3 (each line is one of three independent assays; the three lines of one compound and parasite line follow each other); conditions: n = 1; for Individual replicates / Log AC50 (M): 72 h; for AC50: Plasmodium falciparum, DD2, 72 h, read-out: Individual replicates / Log AC50 (converted)
T1 construct: Dd2-attB, the isogenic parental line
Summary of the method: (§1)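 Three independent runs, compound subset only; parental vs ScDHODH line compared by two-sided Student's t-test.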

[4] = test system: luciferase-expressing P. berghei liver stage parasites in HepG2 cells; test: Inhibition of liver-stage development assay (ILSDA), Method 2 (WRAIR, 96-well); format: cell-based, Plasmodium berghei; conditions: for Max Resp (signal direction of the dose response) / AC50 / Log AC50 (M): Method 2; for Max Resp (signal direction of the dose response): Decrease = decreasing P. berghei viability with dose, Increase = increasing signal, Inactive = no dose response; for AC50: Hill fit, 50% of maximum activity response, read-out: AC50; for Log AC50 (M): log10 of molar AC50 from Hill fit; for Activity direction (Decrease / Inactive): P. berghei liver stage, Method 2, dose response
[5] = test system: Plasmodium falciparum Dd2 asexual blood stage parasites; test: microbe, parasite or virus in culture; design: species or system Plasmodium falciparum Dd2 in human erythrocytes; single determination (one 11-point concentration-response curve); conditions: Plasmodium falciparum, DD2, Erythrocyte, 72 h; read-out: AC50
[6] = test system: T2, Plasmodium falciparum Dd2-attB-ScDHODH (transgenic line expressing yeast DHODH), asexual blood stages; test: organism not typed; design: replicate k of 3 (each line is one of three independent assays; the three lines of one compound and parasite line follow each other); conditions: 72 h, n = 1; for AC50: read-out: Individual replicates / Log AC50 (converted)
T2 construct: Dd2-attB-ScDHODH, the transgenic line that expresses yeast DHODH
Summary of the method: as §1

in vitro = conditions: human, HepG2-A16-CD81EGFP cells, uninfected
[7] = HepG2, the header list (r10) describes it as the 1 µM dose
[8] = Plasmodium berghei, Hill fit, 50% of maximum activity response, read-out: AC50
[9] = Plasmodium berghei, log10 of molar AC50 from Hill fit, read-out: Log AC50 (converted)
[10] = Hill fit, 50% of maximum activity response, read-out: AC50
[11] = log10 of molar AC50 from Hill fit
[12] = Plasmodium berghei, repeat 1, read-out: Pb-Luc signal, 1 uM, repeat 1
[13] = Plasmodium berghei, repeat 2, read-out: Pb-Luc signal, 1 uM, repeat 2
[14] = Plasmodium berghei, repeat 3, read-out: Pb-Luc signal, 1 uM, repeat 3
[15] = Plasmodium berghei, repeat 1, read-out: Pb-Luc signal, 3 uM, repeat 1
[16] = Plasmodium berghei, repeat 2, read-out: Pb-Luc signal, 3 uM, repeat 2
[17] = Plasmodium berghei, repeat 3, read-out: Pb-Luc signal, 3 uM, repeat 3

Row | Structure (SMILES) | Average P. berghei 3 µM response( %) [1] [%] | Average P. berghei 1 µM response (%) [1] [%] | Pf ABS Log AC50 (M) [2] [M] | Average HepG2 3 µM response( %) (HepG2-A16-CD81EGFP cells; HepG2, 3 µM dose) [%] | Average HepG2 3 µM response( %) (HepG2-A16-CD81EGFP cells; [7]) [%] | Individual replicates / Log AC50 (M) [3] | AC50 [1, 8] [nM] | AC50 [1, 9] [nM] | AC50 [5] [nM] | Individual replicates / Log AC50 (M) [6] | further results
1 | Cc1cc(Cl)c(S(=O)(=O)N2CCN(c3ccccn3)CC2)cc1OCC(=O)NC1CCCCC1 [MLS000693481] | 74 | 99 | -6.387 | 100 | 93 |  |  |  |  |  | 
2 | COc1ccc(NC2=C(c3ccc(C(F)(F)F)cc3)C(=O)c3ccccc32)cc1 [NCGC00107310-01] |  |  |  |  |  | -6.3486 Log AC50 (M) and -6.1486 Log AC50 (M) and -6.1986 Log AC50 (M) | 1780 | 1780 | 2110 | -5.7986 Log AC50 (M) and -5.8986 Log AC50 (M) (2×) | Max Resp (signal direction of the dose response) [1]: Decrease; Max Resp (signal direction of the dose response) [4]: Decrease; AC50 [4]: 141 nM; Log AC50 (M) [4]: -6.850 M
3 | Cc1ccc2oc(=O)c3cnn(CC(=O)Nc4cccc(C(F)(F)F)c4)c3c2c1 [NCGC00110933] | 101 | 114 | -5.575 | 98 | 97 |  |  |  |  |  | 
4 | C=C(C)COc1ccc(-c2ncnc(C(F)(F)F)c2-c2ccc(OC)cc2)c(O)c1 [MLS001216205] | 105 | 107 | -5.462 | 103 | 92 |  |  |  |  |  | 
5 | Cc1nn(-c2nnc(NCc3ccccc3)nn2)c(C)c1Br [MLS000704225] | 57 | 106 | -6.187 | 93 | 102 |  |  |  |  |  | 
6 | COc1cc(O)c(C(CCN2CCCC(C)C2)c2cc(OC)c(OC)c(OC)c2)c(OC)c1 (stereo not shown) [MLS000879467] | 71 |  | -5.687 | 86 | 89 |  |  |  |  |  | 
7 | COc1cc(Br)c(C(C)NC(=O)c2cccc(Br)c2)cc1OC (stereo not shown) [MLS000325399] | 70 | 107 | -5.887 | 93 | 98 |  |  |  |  |  | 
8 | Oc1ccc(-c2nnc(S)n2-c2ccc3c(c2)OCCO3)c(O)c1 [MLS000332001] | 70 | 78 | -6.012 | 95 | 101 |  |  |  |  |  | 
9 | Cc1ccc(C)c(NC2=C(c3ccc(C(F)(F)F)cc3)C(=O)c3ccccc32)c1 [NCGC00107302-01] |  |  |  |  |  | -5.6986 Log AC50 (M) and -5.7486 Log AC50 (M) | 1580 | 1580 | 4730 | -4.9986 Log AC50 (M) and -5.0486 Log AC50 (M) | AC50 [3]: 1130 nM; Max Resp (signal direction of the dose response) [4]: Decrease; AC50 [4]: 501 nM; Log AC50 (M) [4]: -6.300 M; AC50 [6]: 7970 nM
10 | O=C1NCc2ccccc2CC12CCCN(Cc1ccccc1)C2 (stereo not shown) [NCGC00377595] | 106 | 116 | -4.980 | 104 | 103 |  |  |  |  |  | 
11 | O=c1cc(-c2ccccc2)c2ccc3c(c2o1)CN(Cc1ccccc1)CO3 [NCGC00116340] | 76 | 87 | -5.575 | 100 | 102 |  |  |  |  |  | 
12 | Cc1ccc(NC2=C(c3ccc(C(F)(F)F)cc3)C(=O)c3ccccc32)cc1C [NCGC00107300-01] |  |  |  |  |  | -5.7486 Log AC50 (M) and -5.5986 Log AC50 (M) | 447 | 447 | 2110 | -5.4986 Log AC50 (M) and -5.2486 Log AC50 (M) | AC50 [3]: 1590 nM; Max Resp (signal direction of the dose response) [1]: Decrease; AC50 [1, 10]: 794 nM; Log AC50 (M) [1, 11]: -6.100 M; Max Resp (signal direction of the dose response) [4]: Decrease; AC50 [4]: 398 nM; Log AC50 (M) [4]: -6.400 M; AC50 [6]: 3990 nM
13 | Oc1ccc(CN2CC(CNc3ccccc3)C3(C2)CN(c2ccccc2)C3)cc1 (stereo not shown) [NCGC00416032-01] |  |  |  |  |  | -5.9373 Log AC50 (M) and -6.1873 Log AC50 (M) | 1410 | 1410 | 611 | -5.6373 Log AC50 (M) and -5.9873 Log AC50 (M) | AC50 [3]: 818 nM; activity at 1 µM [1, 12]: 52.9%; activity at 1 µM [1, 13]: 59%; activity at 1 µM [1, 14]: 77.5%; activity at 3 µM [1, 15]: 5.3%; activity at 3 µM [1, 16]: 6.04%; activity at 3 µM [1, 17]: 8.95%; Activity direction (Decrease / Inactive) [4]: Inactive; viability at 48 h, 1 µM (in vitro): 106%; viability at 48 h, 3 µM (in vitro): 106%; HepG2 viability signal, 1 uM, repeat 2 (HepG2-A16-CD81EGFP cells; nominal 1 uM (10 mM stock), […] for 15 mM, 1.2 uM for 12 mM, 2 uM for 20 mM stock, average of 2 wells, repeat 2): 101.59%; HepG2 viability signal, 3 uM, repeat 2 (HepG2-A16-CD81EGFP cells; nominal 3 uM (10 mM stock), 4.5 uM for 15 mM, 3.6 uM for 12 mM, 6 uM for 20 mM stock, average of 2 wells, repeat 2): 99.28%
14 | CCCN1C(CC(C)C)=N[S+](=O)([O-])c2cc(NC(=O)c3ccco3)ccc21 [NCGC00473219-01] |  |  |  |  |  | -6.1986 Log AC50 (M) and -5.7986 Log AC50 (M) and -6.3486 Log AC50 (M) | 631 | 631 | 7500 | -5.5986 Log AC50 (M) and -5.4986 Log AC50 (M) and -5.2486 Log AC50 (M) | Max Resp (signal direction of the dose response) [1]: Decrease; activity at 1 µM [1, 12]: 32.3%; activity at 1 µM [1, 13]: 25.4%; activity at 1 µM [1, 14]: 19.9%; activity at 3 µM [1, 15]: 11.9%; activity at 3 µM [1, 16]: 8.91%; activity at 3 µM [1, 17]: 10.7%; Activity direction (Decrease / Inactive) [4]: Inactive; viability at 48 h, 1 µM (in vitro): 103%; viability at 48 h, 3 µM (in vitro): 105%; HepG2 viability signal, 1 uM, repeat 2 (HepG2-A16-CD81EGFP cells): 101.29%; HepG2 viability signal, 3 uM, repeat 2 (HepG2-A16-CD81EGFP cells): 102.75%
15 | C[C@H]1[C@@H](O)O[C@@H]2O[C@@]3(C)CC[C@H]4[C@H](C)CC[C@@H]1[C@@]24OO3 [dihydroartemisinin, reference compound] |  |  |  |  |  |  |  |  |  |  | AC50 ([2]; Plasmodium falciparum, DD2, 72 h, SYBR Green 72 h, read-out: AC50, Dd2 ABS parasites): 2 nM
16 | Cc1ccc(NC2=C(c3ccc(C(F)(F)F)cc3)C(=O)c3ccccc32)cc1F [NCGC00107266-01] |  |  |  |  |  | -6.2486 Log AC50 (M) and -6.2986 Log AC50 (M) | 1260 | 1260 | 1880 | -5.4986 Log AC50 (M) and -5.1986 Log AC50 (M) and -5.3986 Log AC50 (M) | AC50 [3]: 399 nM; Max Resp (signal direction of the dose response) [1]: Decrease; AC50 [1, 10]: 1410 nM; Log AC50 (M) [1, 11]: -5.850 M; Max Resp (signal direction of the dose response) [4]: Decrease; AC50 [4]: 79 nM; Log AC50 (M) [4]: -7.100 M
17 | CCCN1C(CC(C)C)=N[S+](=O)([O-])c2cc(NC(=O)c3ccccc3Cl)ccc21 [NCGC00473218-01] |  |  |  |  |  | -5.5486 Log AC50 (M) and -5.3986 Log AC50 (M) and -5.1986 Log AC50 (M) |  |  |  | -5.0486 Log AC50 (M) | Activity direction (Decrease / Inactive) [4]: Inactive; AC50 [6]: 7970 nM
